Assay [1] has as its system GP2D (KRAS G12D) cells. In words: 2D cell viability assay (CellTiter-Glo). The assay is classed as cell-based. The note with it: GP2d, 96 h, 4 days. The gist of the method: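 Viability was read by CellTiter-Glo after 4 days at 37 °C of 2D culture of KRAS G12D GP2D cells (1000/well, RPMI, 10% FBS) on pre-spotted threefold compound dilutions. EC50 was fitted with a sigmoidal dose-response model as the point of half-maximal luminescence loss.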
(In general: ATP-based viability assays read luminescence as a measure of living cells.)

The target of assay [2] is GDP-loaded KRAS G12D (Homo sapiens (Human), UniProt P01116, G12D). In words: KRAS G12D (GDP) biochemical assay (TR-FRET probe displacement). The conditions noted are these: 2 hours. Type of assay: binding. In outline: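 TR-FRET probe displacement: 1:3 DMSO serial dilutions pre-incubated 30 min with GDP-bound KRAS G12D, followed by Eu-streptavidin/probe for 2 h at room temperature (Hepes pH 7.4, NaCl, MgCl2, Tween-20 buffer). IC50 defined as concentration halving TR-FRET ratio, from sigmoidal dose-response fit.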

pEC50, pIC50: −log10 of the molar value.

Chain of GDP-loaded KRAS G12D (P01116-2 other isoform, or with tags, fused parts or gaps G12D): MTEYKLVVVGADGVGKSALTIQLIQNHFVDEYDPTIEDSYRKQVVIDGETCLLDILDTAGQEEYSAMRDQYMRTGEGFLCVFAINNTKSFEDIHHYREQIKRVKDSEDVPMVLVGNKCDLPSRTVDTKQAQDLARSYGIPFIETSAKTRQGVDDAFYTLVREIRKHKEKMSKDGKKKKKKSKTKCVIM

One may read the pEC50 as the negative decadic logarithm of the EC50, by convention in mol/L. Read a high pEC50 as a small EC50. For orientation: pIC50 means −log10 of the IC50, conventionally taken in molar units. Read a high pIC50 as a low IC50. As for `C#Cc1c(F)ccc2cccc(-c3nc4c5c(nc(OCC6(CN7CCC[Si](C)(C)CC7)CC6)nc5c3F)N3C[C@H]5CC[C@H](N5)[C@@H]3[C@@H](C)C4)c12` [Example 100, (5S,5aS,6S,9R)-12-((1-((4,4-dimethyl-1,4-azasilepan-1-yl)methyl)cyclopropyl)methoxy)-2-(8-ethynyl-7-fluoronanhthalen-1-yl)-1-fluoro-5-methyl-4,5,5a,6,7,8,9,10-octahydro-3,10a,11,13,14-pentaaza-6,9-methanonaphtho[1,8-ab]heptalene], the negative-log EC50 (pEC50) in assay [1] is 6.43. The pIC50 in assay [2] is 7.50.

As for `C#Cc1c(F)ccc2cccc(-c3nc4c5c(nc(OCC6(CN7CCN(CC(F)(F)F)CC7)CC6)nc5c3F)N3C[C@H]5CC[C@H](N5)[C@@H]3[C@@H](C)C4)c12` [Example 101, (5S,5aS,6S,9R)-2-(8-ethynyl-7-fluoronaphthalen-1-yl)-1-fluoro-5-methyl-12-((1-((4-(2,2,2-trifluoroethyl)piperazin-1-yl)methyl)cyclopropyl)methoxy)-4,5,5a,6,7,8,9,10-octahydro-3,10a,11,13,14-pentaaza-6,9-methanonaphtho[1,8-ab]heptalene], the pEC50 in assay [1] was 6.76. Besides, the negative logarithm of the IC50 (pIC50) in assay [2] was 7.90.

Molecule `Oc1cc(-c2nc3c4c(nc(OCC5(CN6CC[C@H](OC(F)(F)F)C6)CC5)nc4c2F)N2C[C@H]4CC[C@H](N4)[C@H]2CC3)c2c(OC(F)(F)F)c(F)ccc2c1` [Example 103, 6-fluoro-4-((5aR,6S,9R)-1-fluoro-12-((1-(((S)-3-(trifluoromethoxy)pyrrolidin-1-yl)methyl)cyclopropyl)methoxy)-4,5,5a,6,7,8,9,10-octahydro-3,10a,11,13,14-pentaaza-6,9-methanonaphtho[1,8-ab]heptalen-2-yl)-5-(trifluoromethoxy)naphthalen-2-ol] showed a pEC50 in assay [1] of 7.20. In assay [2], the pIC50 is 8.28.

`C#Cc1c(F)ccc2cccc(-c3nc4c5c(nc(OC[C@@]67CCCN6[C@H](COc6cccc(S(F)(F)(F)(F)F)c6)CC7)nc5c3F)N3C[C@H]5CC[C@H](N5)[C@@H]3[C@@H](C)C4)c12` [Example 105, (5S,5aS,6S,9R)-2-(8-ethynyl-7-fluoronaphthalen-1-yl)-1-fluoro-5-methyl-12-(((3S,7aS)-3-((3-(pentafluoro-λ^6-sulfaneyl)phenoxy)methyl)tetrahydro-1H-pyrrolizin-7a(5H)-yl)methoxy)-4,5,5a,6,7,8,9,10-octahydro-3,10a,11,13,14-pentaaza-6,9-methanonaphtho[1,8-ab]heptalene] had a pEC50 in assay [1] of 6.36. In addition, the negative-log IC50 (pIC50) in assay [2] was 8.28.

As for `C#Cc1c(F)ccc2cccc(-c3nc4c5c(nc(OCC6(CN7CCC(OC(F)(F)F)CC7)CC6)nc5c3F)N3C[C@H]5CC[C@H](N5)[C@H]3CC4)c12` [Example 107, (5aR,6S,9R)-2-(8-ethynyl-7-fluoronaphthalen-1-yl)-1-fluoro-12-((1-((4-(trifluoromethoxy)piperidin-1-yl)methyl)cyclopropyl)methoxy)-4,5,5a,6,7,8,9,10-octahydro-3,10a,11,13,14-pentaaza-6,9-methanonaphtho[1,8-ab]heptalene], the pEC50 in assay [1] is 6.34. This molecule also gave a negative logarithm of the IC50 (pIC50) in assay [2] of 8.14.

`C#Cc1c(F)ccc2cccc(-c3nc4c5c(nc(OC[C@@]67CCCN6[C@H](COc6cccc(S(F)(F)(F)(F)F)c6)CC7)nc5c3F)N3C[C@H]5CC[C@H](N5)[C@H]3CC4)c12` [Example 108, (5aR,6S,9R)-2-(8-ethynyl-7-fluoronaphthalen-1-yl)-1-fluoro-12-(((3S,7aS)-3-((3-(pentafluoro-λ^6-sulfaneyl)phenoxy)methyl)tetrahydro-1H-pyrrolizin-7a(5H)-yl)methoxy)-4,5,5a,6,7,8,9,10-octahydro-3,10a,11,13,14-pentaaza-6,9-methanonaphtho[1,8-ab]heptalene] gave a negative-log EC50 (pEC50) in assay [1] of 6.35. Also, the pIC50 in assay [2] is 8.82.

`C#Cc1c(F)ccc2cccc(-c3nc4c5c(nc(OC[C@]67CCCN6CC(OC(C(F)(F)F)(C(F)(F)F)C(F)(F)F)C7)nc5c3F)N3C[C@H]5CC[C@H](N5)[C@H]3CC4)c12` (stereo partly drawn) [Example 114, (5aR,6S,9R)-2-(8-ethynyl-7-fluoronaphthalen-1-yl)-1-fluoro-12-((trans-2-((1,1,1,3,3,3-hexafluoro-2-(trifluoromethyl)propan-2-yl)oxy)tetrahydro-1H-pyrrolizin-7a(5H)-yl)methoxy)-4,5,5a,6,7,8,9,1O-octahydro-3,10a,11,13,14-pentaaza-6,9-methanonaphtho[1,8-ab]heptalene]: the negative-log EC50 (pEC50) in assay [1] is 6.00. Also, in assay [2], the negative-log IC50 (pIC50) was 6.90.

For the molecule `C#Cc1c(F)ccc2cccc(-c3nc4c5c(nc(OC[C@@]67CCCN6[C@H](COC(C6CC6)C(F)(F)F)CC7)nc5c3F)N3C[C@H]5CC[C@H](N5)[C@H]3CCC4)c12` (stereo partly drawn) [Example 117, (6aR,7S,10R)-13-(((3S,7aS)-3-((1-cyclopropyl-2,2,2-trifluoroethoxy)methyl)tetrahydro-1H-pyrrolizin-7a(5H)-yl)methoxy)-2-(8-ethynyl-7-fluoronaphthalen-1-yl)-1-fluoro-5,6,6a,7,8,9,10,11-octahydro-4H-3,11a,12,14,15-pentaaza-7,10-methanocyclohepta[4,5]cycloocta[1,2,3-de]naphthalene], the negative-log EC50 (pEC50) in assay [1] is 8.07. Further, in assay [2], the pIC50 was 10.00.

For the molecule `C#Cc1c(F)ccc2cccc(-c3nc4c5c(nc(OC[C@@]67CCCN6[C@H](COc6cccc(S(F)(F)(F)(F)F)c6)CC7)nc5c3F)N3C[C@H]5CC[C@H](N5)[C@H]3CCC4)c12` [Example 118, (6aR,7S,10R)-2-(8-ethynyl-7-fluoronaphthalen-1-yl)-1-fluoro-13-(((3S,7aS)-3-((3-(pentafluoro-λ^6-sulfaneyl)phenoxy)methyl)tetrahydro-1H-pyrrolizin-7a(5H)-yl)methoxy)-5,6,6a,7,8,9,10,11-octahydro-4H-3,11a,12,14,15-pentaaza-7,10-methanocyclohepta[4,5]cycloocta[1,2,3-de]naphthalene], in assay [1], the pEC50 was 7.14. Besides, the negative-log IC50 (pIC50) in assay [2] was 9.40.

As to `Fc1ccc2cccc(-c3nc4c5c(nc(OCC6(CN7CCC(OC(F)(F)F)CC7)CC6)nc5c3F)N3C[C@H]5CC[C@H](N5)[C@H]3CC4)c2c1OC(F)(F)F` [Example 120, (5aR,6S,9R)-1-fluoro-2-(7-fluoro-8-(trifluoromethoxy)naphthalen-1-yl)-12-((1-((4-(trifluoromethoxy)piperidin-1-yl)methyl)cyclopropyl)methoxy)-4,5,5a,6,7,8,9,10-octahydro-3,10a,11,13,14-pentaaza-6,9-methanonaphtho[1,8-ab]heptalene], in assay [1], the pEC50 was 6.00. In assay [2], the negative logarithm of the IC50 (pIC50) is 6.47.

On to `C#Cc1c(F)ccc2cccc(-c3nc4c5c(nc(OC[C@@]67CCCN6C[C@@]6(CC6(F)F)C7)nc5c3F)N3C[C@H]5CC[C@H](N5)[C@H]3CC4)c12` [Example 121, (5aR,6S,9R)-12-(((1S,7a'S)-2,2-difluorodihydro-1′H,3′H-spiro[cyclopropane-1,2′-pyrrolizin]-7a′(5′H)-yl)methoxy)-2-(8-ethynyl-7-fluoronaphthalen-1-yl)-1-fluoro-4,5,5a,6,7,8,9,10-octahydro-3,10a,11,13,14-pentaaza-6,9-methanonaphtho[1,8-ab]heptalene], for which the pEC50 in assay [1] is 8.15. This molecule also had a negative-log IC50 (pIC50) in assay [2] of 9.52.

`Fc1ccc2cccc(-c3nc4c5c(nc(OCC6(CN7CC[C@H](OC(F)(F)F)C7)CC6)nc5c3F)N3C[C@H]5CC[C@H](N5)[C@H]3CC4)c2c1OC(F)(F)F` [Example 125, (5aR,6S,9R)-1-fluoro-2-(7-fluoro-8-(trifluoromethoxy)naphthalen-1-yl)-12-((1-(((S)-3-(trifluoromethoxy)pyrrolidin-1-yl)methyl)cyclopropyl)methoxy)-4,5,5a,6,7,8,9,10-octahydro-3,10a,11,13,14-pentaaza-6,9-methanonaphtho[1,8-ab]heptalene] gave a pEC50 in assay [1] of 6.00. This molecule also gave a pIC50 in assay [2] of 6.38.

In assay [1], `C#Cc1c(F)ccc2cccc(-c3nc4c5c(nc(OCC6(CN7CC[C@H](OC(F)(F)F)C7)CC6)nc5c3F)N3C[C@H]5CC[C@H](N5)[C@H]3CCC4)c12` [Example 126, (6aR,7S,10R)-2-(8-ethynyl-7-fluoronaphthalen-1-yl)-1-fluoro-13-((1-(((S)-3-(trifluoromethoxy)pyrrolidin-1-yl)methyl)cyclopropyl)methoxy)-5,6,6a,7,8,9,10,11-octahydro-4H-3,11a,12,14,15-pentaaza-7,10-methanocyclohepta[4,5]cycloocta[1,2,3-de]naphthalene] gave a pEC50 of 7.03. In addition, the negative-log IC50 (pIC50) in assay [2] was 8.70.

On to `C#Cc1c(F)ccc2cccc(-c3nc4c5c(nc(OCC6(CN7CCC(OC(F)(F)F)CC7)CC6)nc5c3F)N3C[C@H]5CC[C@H](N5)[C@H]3CCC4)c12` [Example 127, (6aR,7S,10R)-2-(8-ethynyl-7-fluoronaphthalen-1-yl)-1-fluoro-13-((1-((4-(trifluoromethoxy)piperidin-1-yl)methyl)cyclopropyl)methoxy)-5,6,6a,7,8,9,10,11-octahydro-4H-3,11a,12,14,15-pentaaza-7,10-methanocyclohepta[4,5]cycloocta[1,2,3-de]naphthalene], for which, in assay [1], the pEC50 is 7.05. The same molecule showed a pIC50 in assay [2] of 8.80.

As for `C#Cc1c(F)ccc2cc(O)cc(-c3nc4c5c(nc(OC[C@@]67CCCN6C[C@H](OC(C(F)(F)F)(C(F)(F)F)C(F)(F)F)C7)nc5c3F)N3C[C@H]5CC[C@H](N5)[C@H]3CC4)c12` [Example 129, 5-ethynyl-6-fluoro-4-((5aR,6S,9R)-1-fluoro-12-((trans-2-((1,1,1,3,3,3-hexafluoro-2-(trifluoromethyl)propan-2-yl)oxy)tetrahydro-1H-pyrrolizin-7a(5H)-yl)methoxy)-4,5,5a,6,7,8,9,10-octahydro-3,10a,11,13,14-pentaaza-6,9-methanonaphtho[1,8-ab]heptalen-2-yl)naphthalen-2-ol], the negative logarithm of the EC50 (pEC50) in assay [1] is 7.88. The pIC50 in assay [2] was 8.57.

Values taken from US20230339981A1, “KRAS G12D MODULATING COMPOUNDS” (priority 2022, published 2023).
